pEC50: −log10 of the molar value.
Tests used:
[1] = target: T1, THR beta (Homo sapiens, UniProt P10828); test: HEK293T THR beta/RXR luciferase reporter assay (Assay 2); assay type: cell-based; details: for Emax: HEK-293T, Table 5, Assay 2, THRβ, read-out: Activity category Assay 2 THRβ (Emax); for pEC50: THR-beta, HEK293T reporter assay, read-out: Activity category Assay 2 (EC50, THR-beta agonist)
T1 construct: expressed in transfected cells; host or cells: HEK293T (ATCC CRL-3216)
T1 sequence (P10828 1-461): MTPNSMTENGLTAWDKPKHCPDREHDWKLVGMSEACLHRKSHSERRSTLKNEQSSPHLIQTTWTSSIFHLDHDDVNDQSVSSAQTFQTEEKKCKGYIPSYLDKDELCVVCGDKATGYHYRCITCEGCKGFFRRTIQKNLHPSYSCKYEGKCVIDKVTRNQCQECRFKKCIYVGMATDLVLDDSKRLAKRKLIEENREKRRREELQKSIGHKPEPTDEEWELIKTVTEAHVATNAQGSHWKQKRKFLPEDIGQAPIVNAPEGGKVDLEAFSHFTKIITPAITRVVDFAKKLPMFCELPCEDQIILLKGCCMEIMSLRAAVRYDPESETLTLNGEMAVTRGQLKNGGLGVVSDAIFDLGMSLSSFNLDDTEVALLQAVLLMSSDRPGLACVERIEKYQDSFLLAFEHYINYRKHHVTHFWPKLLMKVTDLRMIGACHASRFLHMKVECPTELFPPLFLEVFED
T1 sequence (P19793 1-462 partner): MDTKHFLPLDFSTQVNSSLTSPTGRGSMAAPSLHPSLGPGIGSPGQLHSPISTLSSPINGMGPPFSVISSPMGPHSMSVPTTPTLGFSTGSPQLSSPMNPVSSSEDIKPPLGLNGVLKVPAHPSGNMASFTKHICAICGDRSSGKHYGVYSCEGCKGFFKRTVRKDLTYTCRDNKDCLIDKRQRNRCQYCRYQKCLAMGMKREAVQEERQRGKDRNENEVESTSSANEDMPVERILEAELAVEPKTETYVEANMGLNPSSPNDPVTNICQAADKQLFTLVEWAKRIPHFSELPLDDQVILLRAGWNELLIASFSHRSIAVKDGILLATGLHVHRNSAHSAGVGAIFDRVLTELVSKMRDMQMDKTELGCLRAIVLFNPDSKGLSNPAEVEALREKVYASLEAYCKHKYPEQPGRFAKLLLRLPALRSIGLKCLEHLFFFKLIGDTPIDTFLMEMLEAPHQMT
Description: (§1) HEK293T Reporter THRalpha/Beta/RXR Reporter Assay (Assay 2)
(§2) The purpose of this assay is to evaluate the effect of compounds on the thyroid hormone nuclear receptor pathway in HEK293T cells. To this end, HEK293T cells are transiently transfected with a luciferase reporter under the control of the thyroid response element (TRE), an RXR expression plasmid and either a THR alpha or THR beta expression plasmid. Transfected cells are stimulated with test compounds for 18-24 hours before activation of the thyroid hormone pathway is measured via a luciferase read-out.
(§3) Procedure. […] Ten five-fold dilutions of test compounds are prepared in DMSO and 30 nL are dispensed to the cells. […] Approximately 18-24 h after compound addition, 384 well plates are allowed to adjust to rt, 30 μL One-Glo (Promega catalog #E6120) is added to each well and luminescence is measured on a Perkin Elmer Enspire plate reader. Percent agonism is calculated using the following equation: 100× (sample-negative control)/(positive control-negative control).

[2] = target: T2, THR alpha (Homo sapiens, UniProt P10827); test: HEK293T THR alpha/RXR luciferase reporter assay (Assay 2); assay type: cell-based; details: Assay 2; for Emax: HEK-293T, Table 5, THRα, read-out: Activity category Assay 2 THRα (Emax); for pEC50: Table 4, THR-alpha, read-out: Activity category Assay 2 (EC50, THR-alpha agonist activity)
T2 construct: expressed in transfected cells; host or cells: HEK293T (ATCC CRL-3216)
T2 sequence (P10827 1-410 isoform P10827-2): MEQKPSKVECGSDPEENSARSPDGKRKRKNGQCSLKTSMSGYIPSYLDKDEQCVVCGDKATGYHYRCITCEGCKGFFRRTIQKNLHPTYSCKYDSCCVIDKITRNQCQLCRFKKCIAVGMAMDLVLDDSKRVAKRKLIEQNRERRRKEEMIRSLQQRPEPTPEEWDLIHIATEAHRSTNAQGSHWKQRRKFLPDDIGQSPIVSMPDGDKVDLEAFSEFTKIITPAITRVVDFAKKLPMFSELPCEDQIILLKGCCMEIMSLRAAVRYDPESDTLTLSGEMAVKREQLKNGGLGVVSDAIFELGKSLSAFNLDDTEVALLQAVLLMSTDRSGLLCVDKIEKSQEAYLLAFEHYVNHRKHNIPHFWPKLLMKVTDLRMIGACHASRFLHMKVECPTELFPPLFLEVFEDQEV
T2 sequence (P19793 1-462 partner): T1 sequence (P19793 1-462 partner)
Description: as §1, §2, §3

[3] = target: T3, human thyroid receptor beta ligand-binding domain (LBD) (Homo sapiens, UniProt P10828); test: TR-FRET thyroid receptor beta coactivator assay (THR biochemical assay, Assay 1); details: for pEC50: THR-beta, TR-FRET coactivator assay, read-out: Activity category Assay 1 (EC50, THR-beta agonist); for Emax: Table 5, Assay 1, THRβ, read-out: Activity category Assay 1 THRβ (Emax)
T3 construct: purchased Invitrogen
T3 sequence (P10828 217-461 limits assumed): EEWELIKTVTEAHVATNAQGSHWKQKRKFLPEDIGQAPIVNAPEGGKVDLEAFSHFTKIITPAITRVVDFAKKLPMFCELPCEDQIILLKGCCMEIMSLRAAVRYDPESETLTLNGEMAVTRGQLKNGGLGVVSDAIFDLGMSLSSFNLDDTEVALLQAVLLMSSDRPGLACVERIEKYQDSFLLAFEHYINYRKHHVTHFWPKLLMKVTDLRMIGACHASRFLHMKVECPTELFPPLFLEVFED
Outline: (§4)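 Agonist-driven coactivator recruitment measured by TR-FRET: terbium anti-GST antibody (2 nM) bound to GST-LBD of TRβ or TRα (1 nM final, stated for β), with fluorescein SRC2-2 peptide at 200 nM. Compounds at 1% DMSO. Read after 1 h, room temperature, protected from light.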

[4] = target: T4, human thyroid receptor alpha ligand-binding domain (LBD) (Homo sapiens, UniProt P10827); test: TR-FRET thyroid receptor alpha coactivator assay (THR biochemical assay, Assay 1); details: for pEC50: Table 4, THR-alpha, read-out: Activity category Assay 1 (EC50, THR-alpha agonist activity); for Emax: Table 5, THRα, read-out: Activity category Assay 1 THRα (Emax)
T4 construct: purchased Invitrogen
Outline: as §4

Compound | Emax [1] | pEC50 [1] | Emax [2] | pEC50 [2] | pEC50 [3] | Emax [3] | pEC50 [4] | Emax [4]
CC(C)Cc1c[nH]c2ccc(Oc3c(Cl)cc(-n4nc(C#N)c(=O)[nH]c4=O)cc3Cl)cc12 [Compound 49, 2-(3,5-dichloro-4-[[3-(2-methylpropyl)-1H-indol-5-yl]oxy]phenyl)-3,5-dioxo-4H-1,2,4-triazine-6-carbonitrile] | > 75% | 6.00 to 6.60 | < 50% | 6.00 to 6.60 | > 7.30 | < 50% | > 7.30 | < 50%
CC1(C)CC(c2cc(Oc3c(Cl)cc(-n4nc(N)c(=O)[nH]c4=O)cc3Cl)n[nH]c2=O)CCO1 (stereo not shown) [Compound 76, 6-Amino-2-(3,5-dichloro-4-((5-(2,2-dimethyltetrahydro-2H-pyran-4-yl)-6-oxo-1,6-dihydropyridazin-3-yl)oxy)phenyl)-1,2,4-triazine-3,5(2H, 4H)-dione] | 50 to 75% | 6.00 to 6.60 | < 50% | < 5.00 | 4.60 to 6.00 | < 50% | < 4.60 | < 50%
CC(c1c[nH]c2ccc(Oc3c(Cl)cc(-n4nc(C#N)c(=O)[nH]c4=O)cc3Cl)cc12)C(F)(F)F (stereo not shown) [Compound 45, 2-(3,5-dichloro-4-[[3-(1,1,1-trifluoropropan-2-yl)-1H-indol-5-yl]oxy]phenyl)-3,5-dioxo-4H-1,2,4-triazine-6-carbonitrile] | > 75% | 6.60 to 7.30 | > 75% | 6.00 to 6.60 | > 7.30 | < 50% | > 7.30 | < 50%
CCCc1c[nH]c2ccc(Oc3c(Cl)cc(-n4nc(C#N)c(=O)[nH]c4=O)cc3Cl)nc12 [Compound 19] | > 75% | 5.00 to 6.00 | < 50% | 5.00 to 6.00 | > 7.30 | < 50% | < 4.60 | < 50%

Second part, the molecule after the results:

Emax [1] | pEC50 [1] | Emax [2] | pEC50 [2] | pEC50 [3] | Emax [3] | pEC50 [4] | Emax [4] | Compound
> 75% | 6.60 to 7.30 | > 75% | 6.00 to 6.60 | 6.60 to 7.30 | < 50% | 6.00 to 6.60 | 50 to 75% | CC(C)(C)c1cc(Oc2c(Cl)cc(-n3nc(N)c(=O)[nH]c3=O)cc2Cl)n[nH]c1=O [Compound 73, 6-Amino-2-(4-((5-(t-butyl)-6-oxo-1,6-dihydropyridazin-3-yl)oxy)-3,5-dichlorophenyl)-1,2,4-triazine-3,5(2H, 4H)-dione]
50 to 75% | > 7.30 | 50 to 75% | > 7.30 | > 7.30 | < 50% | > 7.30 | 50 to 75% | Cc1cc(-n2ncc(=O)[nH]c2=O)cc(C)c1Cc1ccc2c(c1)C1(CC1)C(=O)N2 [Compound 152, 2-(3,5-dimethyl-4-((2′-oxospiro[cyclopropane-1,3′-indolin]-5′-yl)methyl)phenyl)-1,2,4-triazine-3,5(2H,4H)-dione]
50 to 75% | 6.60 to 7.30 | < 50% | < 5.00 | > 7.30 | < 50% | 4.60 to 6.00 | < 50% | O=c1cc(-c2ccc3c(c2)CCCC3)c(Oc2c(Cl)cc(-n3ncc(=O)[nH]c3=O)cc2Cl)n[nH]1 [Compound 91-A, 2-(3,5-dichloro-4-((6-oxo-4-(5,6,7,8-tetrahydronaphthalen-2-yl)-1,6-dihydropyridazin-3-yl)oxy)phenyl)-1,2,4-triazine-3,5(2H,4H)-dione]
> 75% | > 7.30 | 50 to 75% | > 7.30 | > 7.30 | 50 to 75% | > 7.30 | 50 to 75% | CC(C)c1c[nH]c2ccc(Oc3c(Cl)cc(-n4nc(N)c(=O)[nH]c4=O)cc3Cl)cc12 [Compound 41, 6-amino-2-[3,5-dichloro-4-[(3-isopropyl-1H-indol-5-yl)oxy]phenyl]-4H-1,2,4-triazine-3,5-dione]

From patent US12180192B2, “Modulators of THR-β and methods of use thereof” (ALIGOS THERAPEUTICS, INC., priority 2019, dated 2024)
